Patent US20090054450A1, “COMPOSITIONS AND METHODS OF USE FOR TREATING OR PREVENTING LIPID RELATED DISORDERS” (IRONWOOD PHARMACEUTICALS, INC., priority 2007, published 2009)

What was measured:
[1] = system: rat high fat, high cholesterol diet model; test: Rat High Fat, High Cholesterol Diet Model; format: in vivo; settings: HFHC diet rats; for HDL / LDL / VLDL: once daily perorally for seven days, serum VAP analysis, compound 13 at 3, 10, 30 mg/kg; for HDL / LDL / VLDL / blood glucose: compound 10A at 3, 10, or 30 mg/kg, compound 5A at 100 mg/kg; for blood glucose: seven days dosing
Experimental: Fibrate and statin derivatives, alone and in combination, are tested for effects on cholesterol and lipid profiles in a rat high fat diet model for example as described in Ghibaudi et al. (2002) Obes Res 10:956-63, Ricci and Levin (2003) Am J Physiol Regul Integr Comp Physiol 285:R610-8, and Gao et al. (2002) 936:87-90. Alternatively, animals are fed either a normal diet or a chow supplemented with added fat and/or cholesterol as described in Krause et al (1994) Pharm Res Vol 29, No. 4, Nishina (1993) J of Lipid Res vol 43. and Gajda et al. (2007) Animal Lab News. Based on the specific chows used in these reports, we fed animals a diet consisting of 40% fat, 1% cholesterol, and 0.5% cholic acid (catalog #D01061201, Research Diets, New Brunswick, N.J. 08901). After at least a week on this diet, animals (6-8/group) are dosed once daily perorally with 300 uL test compounds in PEG 400 or suitable vehicle. Groups are dosed for at least one week before whole blood samples are taken for analysis. Blood serum is analyzed using Vertical Auto Profile (VAP; Atherotech, Inc., Birmingham, Ala.) analysis similar to as described in Kulkami (2006) Clin Lab Med 26:787-802.
Similarly, when tested in this assay, Compound 5A [(E)-4-(3,5-dimethoxystyryl)phenyl 2-(4-(4-chlorobenzoyl)phenoxy)-2-methylpropanoate] was associated with decreased LDL and VLDL, no change in blood glucose, and increased HDL. Graphical depictions showing the LDL, VLDL and HDL analyses for compounds 10A and 5A are shown in FIGS. 1, 2, and 3 respectively. Compound 13 (4-(nitrooxy)butyl 2-(4-(4-chlorobenzoyl)phenoxy)-2-methylpropanoate) was also tested in this assay. FIGS. 4-6 are graphs showing that Compound 13 decreased LDL (FIG. 4) and VLDL (FIG. 5) and increased HDL (FIG. 6). Fenofibrate was also tested in this assay at 2, 6.8 and 20.5 mg/kg (FIGS. 4-6) which are equimolar equivalents (for the fenofibric acid moiety) of Compound 10A dosed at […]. Similar untested dose equivalent amounts to Compound 13 at 3, 10, and 30 mg/kg would be 2.5, 8.3, and 24.8 mg/kg of fenofibrate. In these experiments animals (n=6 per group) were fed either a normal chow (chow) or high fat high cholesterol chow (HFHC; 40% fat, 1% cholesterol, 0.5% cholic acid) diet for one week before test compound administration. Animals received either no test compound (“naïve”), vehicle only (PEG 400) or test compound (compound 10A at 3, 10, or 30 mg/kg, compound 5A at 100 mg/kg, compound 13 at 3, 10, 30 mg/kg, or fenofibrate at 2, 6.8, or 20.5 mg/kg) for seven days before whole blood samples were taken for analysis. […] Compound 8A may be useful for another contemplated use described herein however.

[2] = Pharmacokinetics in rat high fat high cholesterol diet model (LC/MS-MS); format: in vivo; settings: oral administration, vs compound 121 (resveratrol)
Experimental: Similarly, when tested in this assay, Compound 5A [(E)-4-(3,5-dimethoxystyryl)phenyl 2-(4-(4-chlorobenzoyl)phenoxy)-2-methylpropanoate] was associated with decreased LDL and VLDL, no change in blood glucose, and increased HDL. Graphical depictions showing the LDL, VLDL and HDL analyses for compounds 10A and 5A are shown in FIGS. 1, 2, and 3 respectively. Compound 13 (4-(nitrooxy)butyl 2-(4-(4-chlorobenzoyl)phenoxy)-2-methylpropanoate) was also tested in this assay. FIGS. 4-6 are graphs showing that Compound 13 decreased LDL (FIG. 4) and VLDL (FIG. 5) and increased HDL (FIG. 6). Fenofibrate was also tested in this assay at 2, 6.8 and 20.5 mg/kg (FIGS. 4-6) which are equimolar equivalents (for the fenofibric acid moiety) of Compound 10A dosed at […]. Similar untested dose equivalent amounts to Compound 13 at 3, 10, and 30 mg/kg would be 2.5, 8.3, and 24.8 mg/kg of fenofibrate. […]
(§1) Various pharmacokinetic parameters were calculated by collecting plasma samples from animals dosed with a test compound and analyzed by LC/MS-MS. […] Concentrations were determined by relative responses to an internal standard and calculated based on a standard concentration curve of the test compound. […] Oral Bioavailability (Fn) was calculated using the equation: F=(AUCoral/AUCIV)*DoseIV.Doseoral). Cmax and Tmax are determined by visual inspection of the oral concentration curve. […]

[3] = Pharmacokinetic profile in blood plasma of ob/ob mice (LC/MS-MS); format: in vivo, mouse
Experimental: The increased expression of plasma lipids in ob/ob mice make them a useful model for the study of drugs designed to lower cholesterol. In these experiments animals (n=10 per group) were fed a high fat chow (HF; 60% fat,) for one week before test compound administration and continued on this diet for the duration of the experiment. Animals received either vehicle only (PEG 400), or test compound (Compound 121 (resveratrol) at 43 or 1000 mg/kg, Compound 10A at 30 or 100 mg/kg, or fenofibrate at 68 mg/kg) perorally once daily for a total of three weeks. Blood samples were collected weekly for the determination of fasting glucose levels (One touch Ultra, LifeScan Inc). Blood serum was analyzed after three weeks using Vertical Auto Profile (VAP; Atherotech, Inc., Birmingham, Ala.) analysis similar to as described in Kulkami (2006) Clin Lab Med 26:787-802. […]
as §1

[4] = system: ob/ob mice; test: Obese (ob/ob) Mouse Model, blood glucose; format: in vivo; settings: ob/ob mice on high fat chow, perorally once daily for three weeks, days 7, 14, 21; Compound 10A 30 and 100 mg/kg, Compound 121 43 or 1000 mg/kg, fenofibrate 68 mg/kg
Experimental: The increased expression of plasma lipids in ob/ob mice make them a useful model for the study of drugs designed to lower cholesterol. In these experiments animals (n=10 per group) were fed a high fat chow (HF; 60% fat,) for one week before test compound administration and continued on this diet for the duration of the experiment. Animals received either vehicle only (PEG 400), or test compound (Compound 121 (resveratrol) at 43 or 1000 mg/kg, Compound 10A at 30 or 100 mg/kg, or fenofibrate at 68 mg/kg) perorally once daily for a total of three weeks. Blood samples were collected weekly for the determination of fasting glucose levels (One touch Ultra, LifeScan Inc). Blood serum was analyzed after three weeks using Vertical Auto Profile (VAP; Atherotech, Inc., Birmingham, Ala.) analysis similar to as described in Kulkami (2006) Clin Lab Med 26:787-802. […] 43 mg/kg of compound 121 (resveratrol) and 68 mg/kg of fenofibrate are the equimolar equivalents to the amounts of resveratrol and fenofibric acid moieties in 100 mg/kg of Compound 10A. […] FIG. 8 is a pharmacokinetic profile (using the methodologies as described herein) analyzing fenofibric acid levels in blood plasma of ob/ob mice dosed with either 68 mg/kg of fenofibrate, or 30 mg/kg or 100 mg/kg of Compound 10A.

[5] = system: ob/ob mice; settings: fenofibrate 100 mg/kg; McCarmona et al. (2005); cited from earlier work

For `COc1cc(/C=C/c2ccc(OC(=O)C(C)(C)Oc3ccc(C(=O)c4ccc(Cl)cc4)cc3)cc2)cc(OC)c1` [Compound 5A, (E)-4-(3,5-dimethoxystyryl)phenyl 2-(4-(4-chlorobenzoyl)phenoxy)-2-methylpropanoate], the HDL [1] was “increased”, the LDL [1] was “decreased” and the VLDL [1] was “decreased”. For the same compound, the blood glucose [1] was “no change”.
For `CC(=O)Oc1cc(/C=C/c2ccc(OC(=O)C(C)(C)Oc3ccc(C(=O)c4ccc(Cl)cc4)cc3)cc2)cc(OC(C)=O)c1` [Compound 8A, (E)-5-(4-(2-(4-(4-chlorobenzoyl)phenoxy)-2-methylpropanoyloxy)styryl)-1,3-phenylene diacetate], the “efficacy in rat high fat, high cholesterol diet model” value [1] was “does not show any efficacy” and the melting point was 112 to 113 °C.
For `CC(C)(Oc1ccc(C(=O)c2ccc(Cl)cc2)cc1)C(=O)Oc1ccc(/C=C/c2cc(O)cc(O)c2)cc1.Cl` [Compound 10A, (E)-4-(3,5-dihydroxystyryl)phenyl 2-(4-(4-chlorobenzoyl)phenoxy)-2-methylpropanoate], the resveratrol pharmacokinetic profile [2] was “different resveratrol pharmacokinetic profile”, the “fenofibric acid exposure in blood plasma” value ([3]; ob/ob mice, 30 mg/kg Compound 10A as compared to 68 mg/kg fenofibrate) was “less fenofibric acid exposure” and the resveratrol pharmacokinetic profile ([3]; obese mouse model, oral administration, 100 mg/kg Compound 10A vs 43 mg/kg compound 121 (resveratrol)) was “different resveratrol pharmacokinetic profile”. The HDL [1] was “increased”, the LDL [1] was “dose related decreases” and the VLDL [1] was “dose related decreases”. For the same compound, the blood glucose [1] was “decreased” and the “blood glucose (fasting), change compared to day 0” value (from here on “blood glucose (fasting), change”) [4] was “statistically significant (when compared to day 0) decreases”.
For `CC(C)(Oc1ccc(C(=O)c2ccc(Cl)cc2)cc1)C(=O)OCCCCO[N+](=O)[O-]` [Compound 13, 4-(nitrooxy)butyl 2-(4-(4-chlorobenzoyl)phenoxy)-2-methylpropanoate], the HDL [1] was “increased”, the LDL [1] was “decreased” and the VLDL [1] was “decreased”.
In the case of `Oc1ccc(/C=C/c2cc(O)cc(O)c2)cc1` [Compound 121, (E)-5-(4-hydroxystyryl)benzene-1,3-diol], the “blood glucose (fasting), change” value [4] is reported as “neither Compound 121 (resveratrol; dosed at 43 or 1000 mg/kg) or fenofibrate (dosed at 68 mg/kg) resulted in statistically significant changes”.
In the case of `CC(C)OC(=O)C(C)(C)Oc1ccc(C(=O)c2ccc(Cl)cc2)cc1` [fenofibrate, 2-[4-(4-chlorobenzoyl)phenoxy]-2-methyl-propanoic acid, 1-methylethyl ester], the “blood glucose in ob/ob mice” value [5] is listed as “shown to decrease blood glucose” and the “blood glucose (fasting), change” value [4] is listed as “neither Compound 121 (resveratrol; dosed at 43 or 1000 mg/kg) or fenofibrate (dosed at 68 mg/kg) resulted in statistically significant changes”.
